US20040121994A1, “Novel amides that activate soluble guanylate cyclase” (priority 2002, published 2004)

Target: T1, soluble guanylate cyclase (sGC), α1 and β1 subunits of guanylate cyclase expressed in Sf9 cells (Homo sapiens, UniProt Q02108+Q02153)
T1 construct: made in house; host or cells: Sf9 insect cells (baculovirus co-infection)
T1 sequence (Q02108 1-690): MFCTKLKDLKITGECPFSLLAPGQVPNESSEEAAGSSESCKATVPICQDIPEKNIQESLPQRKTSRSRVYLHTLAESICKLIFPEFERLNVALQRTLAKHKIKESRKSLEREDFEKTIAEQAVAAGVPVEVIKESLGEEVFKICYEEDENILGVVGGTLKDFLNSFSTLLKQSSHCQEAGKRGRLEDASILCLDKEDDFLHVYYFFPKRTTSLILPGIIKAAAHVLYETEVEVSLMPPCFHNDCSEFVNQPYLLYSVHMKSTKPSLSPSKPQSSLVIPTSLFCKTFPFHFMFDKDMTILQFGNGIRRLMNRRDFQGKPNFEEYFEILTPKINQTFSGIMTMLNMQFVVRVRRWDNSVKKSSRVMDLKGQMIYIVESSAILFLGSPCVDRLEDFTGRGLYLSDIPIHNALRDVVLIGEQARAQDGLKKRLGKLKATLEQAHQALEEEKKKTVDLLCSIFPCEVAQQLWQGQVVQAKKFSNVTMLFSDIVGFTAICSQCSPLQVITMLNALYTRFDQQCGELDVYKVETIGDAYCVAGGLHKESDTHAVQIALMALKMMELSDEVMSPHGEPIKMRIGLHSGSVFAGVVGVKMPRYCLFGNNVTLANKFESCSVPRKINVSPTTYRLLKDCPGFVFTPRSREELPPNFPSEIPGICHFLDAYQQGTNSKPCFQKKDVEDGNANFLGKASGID
T1 sequence (Q02153 1-619): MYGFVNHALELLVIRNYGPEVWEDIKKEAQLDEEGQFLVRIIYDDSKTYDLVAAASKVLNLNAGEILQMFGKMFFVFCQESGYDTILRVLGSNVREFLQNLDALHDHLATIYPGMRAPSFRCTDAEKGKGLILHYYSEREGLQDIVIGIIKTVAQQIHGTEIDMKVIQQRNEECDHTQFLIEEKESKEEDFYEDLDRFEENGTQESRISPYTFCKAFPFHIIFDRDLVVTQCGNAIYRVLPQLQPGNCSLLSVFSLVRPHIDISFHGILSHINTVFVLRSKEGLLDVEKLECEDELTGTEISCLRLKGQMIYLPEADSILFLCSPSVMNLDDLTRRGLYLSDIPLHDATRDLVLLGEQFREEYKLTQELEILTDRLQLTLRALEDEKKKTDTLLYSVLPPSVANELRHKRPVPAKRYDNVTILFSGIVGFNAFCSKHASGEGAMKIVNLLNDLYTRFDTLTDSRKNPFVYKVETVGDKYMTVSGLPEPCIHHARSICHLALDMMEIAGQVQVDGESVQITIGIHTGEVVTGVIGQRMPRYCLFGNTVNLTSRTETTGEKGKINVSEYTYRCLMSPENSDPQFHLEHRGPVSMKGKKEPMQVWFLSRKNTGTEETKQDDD
Test: Guanylate cyclase assay (formation of cyclic GMP from GTP)
Assay type: biochemical
Conditions: for Mean activation at 100 μM: (activity of compound at 100 μM with 1 μM SNP)−(activity of compound at 100 μM)/(activity of SNP at 1 μM)−(basal activity of sGC); for Mean efficacy of compound combined with 1 μM of SNP, [%]: compound at 100 μM with 1 μM sodium nitro prusside (SNP); for Emax at 100 µM: read-out: Mean basal efficacy of compound alone at 100 μM, [%]
Method: Sf9 cells were cultured in Sf-90011 medium supplemented with 10% (v/v) fetal calf serum at 28° C. to give a count of 6×10^5 cells/ml. The cells were then infected with a mixture of the virus stocks for the α1 and β1 subunits of guanylate cyclase at a multiplicity of infection of 0.1 pfu/cell. The cells were harvested 72 hours after infection and were pelleted by centrifugation. The resulting cell pellets were homogenized with Polytron homogenizer in 3 volumes of 20 mM Tris-HCl (pH 7.6) containing 1 mM EDTA, 5 mM dithiothreitol, 90 mM NaCl, 10% glycerol, and protease inhibitors mix (Roche Molecular Biochemicals). The homogenate was centrifuged at 50,000×g for 60 minutes and the supernatant was aliquotted and stored at −80° C.
Compounds of the present invention were dissolved in DMSO to make 100 mM and saved as stocks at −20° C. When compounds were tested, prepared 10-fold concentrated solutions with 10% DMSO. Then added 10 μl of 10-fold concentrated compound solutions to the reaction mixture of total 100 μl.
Guanylate cyclase activity was measured by the formation of cyclic GMP from GTP in a total volume of 100 μl. Guanylate cyclase-expressed Sf9 cell high-speed supernatant was used as an enzyme source for the assay. The reaction mixture containing 0.1 μl enzyme (Sf9 high-speed sup), compound solution, 50 mM Tris-HCl (pH 7.6), 4 mM MgCl2, 0.5 mM IBMX, 15 mM creatine phosphate, 20 μg creatine phosphokinase, 0.1% BSA and 1 mM GTP was incubated at 37° C. for 15 minutes. After the reaction, 0.9 ml of 50 mM sodium acetate buffer (pH 5.8) was added followed by boiling for 3 minutes to stop the reaction. The solution was centrifuged at 3000 rpm for 15 minutes at room temperature and cyclic GMP in 20 μl of the resulting supernatant was measured according to the protocol of Amersham cyclic GMP enzymeimmunoassay system (purchased from Sigma, catalogue number RPN 226).
Compounds of the present invention were tested at 100 μM with and without 1 μM sodium nitro prusside (SNP). 1-Benzyl-3-hydroxymethyl-2-furylindazole (YC-1) was included as a standard for each assay. The data was normalized with the activity of 100 μM YC-1 (without SNP) as 100%. Mean basal efficacy, in Table 1, was expressed as a percentage of 100 μM YC-1 (without SNP).
The mean activation, in Table 1, was calculated based on the formula: (activity of compound of the present invention at 100 μM with 1 μM SNP)−(activity of compound of the present invention at 100 μM)/(activity of SNP at 1 μM)−(basal activity of sGC).

[1] = normalized with the activity of 100 μM YC-1 (without SNP) as 100%
[2] = compound at 100 μM without SNP, normalized with the activity of 100 μM YC-1 (without SNP) as 100%

Row | Mean activation at 100 μM | Mean efficacy of compound combined with 1 μM of SNP, [%] [1] | Mean basal efficacy of compound alone at 100 μM, [%] [2] | Emax at 100 µM [2] | Molecule
1 | 4.7 | 161% | 136% | – | 2-[1-((2E)-3-{2-[(3-methylbutyl)thio]phenyl}-2-propenoyl)-4-piperidinyl]ethanol [Example 62]
2 | 2.4 | 25% | – | 4% | O=C(CCc1ccccc1Sc1ccc(Cl)cc1)NCCCCO [Example 1, 3-{2-[(4-chlorophenyl)thio]phenyl}-N-(4-hydroxybutyl)propanamide]
3 | 2.6 | 84% | – | 9% | CC(CCCC(C)(C)O)NC(=O)CCc1ccccc1Sc1ccc(Cl)cc1 (stereo not shown) [Example 2, 3-{2-[(4-chlorophenyl)thio]phenyl}-N-(5-hydroxy-1,5-dimethylhexyl)propanamide]
4 | 2.3 | 29% | – | 2% | O=C(CCc1ccccc1Sc1ccc(Cl)cc1)NCCCCCO [Example 3, 3-{2-[(4-chlorophenyl)thio]phenyl}-N-(5-hydroxypentyl)propanamide]
5 | 2.6 | 28% | – | 1% | O=C(CCc1ccccc1Sc1ccc(Cl)cc1)NC1CCC(O)CC1 (stereo not shown) [Example 4, 3-{2-[(4-chlorophenyl)thio]phenyl}-N-(4-hydroxycyclohexyl)propanamide]
6 | 5.1 | 96% | – | 14% | Cc1ccc(Sc2ccccc2CCC(=O)NCCCCO)cc1 [Example 5, N-(4-hydroxybutyl)-3-{2-[(4-methylphenyl)thio]phenyl}propanamide]
7 | 2.7 | 11% | – | 2% | CS(=O)(=O)NCCCCNC(=O)CCc1ccccc1Sc1ccc(Cl)cc1 [Example 6, 3-{2-[(4-chlorophenyl)thio]phenyl}-N-{4-[(methylsulfonyl)amino]butyl}propanamide]
8 | 3.8 | 80% | – | 19% | O=C(CCc1cccc(F)c1Sc1ccc(Cl)cc1)NCCCCO [Example 7, 3-{2-[(4-chlorophenyl)thio]-3-fluorophenyl}-N-(4-hydroxybutyl)propanamide]
9 | 3.1 | 16% | – | 0% | O=C(CCc1cc(F)ccc1Sc1ccc(Cl)cc1)NCCCCO [Example 8, 3-{2-[(4-chlorophenyl)thio]-5-fluorophenyl}-N-(4-hydroxybutyl)propanamide]
10 | 4.0 | 22% | – | 4% | CC(O)CCCNC(=O)CCc1ccccc1Sc1ccc(Cl)cc1 (stereo not shown) [Example 9, 3-{2-[(4-chlorophenyl)thio]phenyl}-N-(4-hydroxypentyl)propanamide]
11 | 1.6 | 7% | – | 0% | CC(CC(=O)N(C)C1CCN(C)CC1)c1ccccc1Sc1ccc(Cl)cc1 (stereo not shown) [Example 10, 3-{2-[(4-chlorophenyl)thio]phenyl}-N-methyl-N-(1-methyl-4-piperidinyl)butanamide]
12 | 2.8 | 6% | – | 1% | CC(CC(=O)NCCc1ccncc1)c1ccccc1Sc1ccc(Cl)cc1 (stereo not shown) [Example 11, 3-{2-[(4-chlorophenyl)thio]phenyl}-N-[2-(4-pyridinyl)ethyl]butanamide]
13 | 1.5 | 20% | – | 2% | CONCCCCNC(=O)CCc1ccccc1Sc1ccc(Cl)cc1 [Example 12, 3-{2-[(4-chlorophenyl)thio]phenyl}-N-[4-(methoxyamino)butyl]propanamide]
14 | 2.4 | 25% | – | 4% | CNCCCCNC(=O)CCc1ccccc1Sc1ccc(Cl)cc1 [Example 13, 3-{2-[(4-chlorophenyl)thio]phenyl}-N-[4-(methylamino)butyl]propanamide]
15 | 4.4 | 124% | – | 30% | CNCCCCCNC(=O)CCc1ccccc1Sc1ccc(Cl)cc1 [Example 14, 3-{2-[(4-chlorophenyl)thio]phenyl}-N-[5-(methylamino)pentyl]propanamide]
16 | 4.7 | 204% | – | 126% | Cc1ccc(Sc2ncccc2/C=C/C(=O)NC2CCC(O)CC2)cc1 (stereo not shown) [Example 15, (2E)-N-(4-hydroxycyclohexyl)-3-{2-[(4-methylphenyl)thio]-3-pyridinyl}acrylamide]
17 | 3.6 | 68% | – | 11% | O=C(/C=C/c1cccnc1Sc1ccc(Cl)cc1)NC1CCC(O)CC1 (stereo not shown) [Example 16, (2E)-3-{2-[(4-chlorophenyl)thio]-3-pyridinyl}-N-(4-hydroxycyclohexyl)acrylamide]
18 | – | 138% | – | 38% | O=C(/C=C/c1cccnc1Sc1ccc(Cl)cc1Cl)NC1CCC(O)CC1 (stereo not shown) [Example 17, (2E)-3-{2-[(2,4-dichlorophenyl)thio]-3-pyridinyl}-N-(4-hydroxycyclohexyl)acrylamide]
19 | – | 113% | – | 43% | O=C(/C=C/c1cccnc1Sc1ccc(Br)cc1)NC1CCC(O)CC1 (stereo not shown) [Example 18, (2E)-3-{2-[(4-bromophenyl)thio]-3-pyridinyl}-N-(4-hydroxycyclohexyl)acrylamide]
20 | 4.8 | 120% | – | 37% | O=C(/C=C/c1cccnc1Sc1ccccc1)NC1CCC(O)CC1 (stereo not shown) [Example 19, (2E)-N-(4-hydroxycyclohexyl)-3-[2-(phenylthio)-3-pyridinyl]acrylamide]
